# Assay results reported in ChEMBL document CHEMBL1201862, “PubChem BioAssay data set” (2004).
#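 48-hour exposure; five concentrations; linearly interpolated endpoints. At the GI50, growth is halved.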 Activity calls are given as the source filed them. Cut-off read from the data, not from the text of the source: active = GI50 up to about 1.1 µM and inactive = higher.
# Tests used:
# Experiment in all cases: NCI-60 cell line screen, 48 h
# [1] = tested on: RXF 393
# [2] = tested on: OVCAR-3
# [3] = tested on: RPMI-8226
# [4] = tested on: OVCAR-4
# [5] = tested on: HT-29
# [6] = tested on: MOLT-4
# [7] = tested on: LXFL 529
# [8] = tested on: KM12
# [9] = tested on: UACC-62
# [10] = tested on: SW-620
# [11] = tested on: SNB-78
# [12] = tested on: SF-268
# [13] = tested on: CAKI-1
# [14] = tested on: M19-MEL
# [15] = tested on: HOP-18
# [16] = tested on: DLD-1
# [17] = tested on: KM-20L2
# [18] = tested on: HOP-62
# [19] = tested on: U-251
# [20] = tested on: COLO 205
# [21] = tested on: ACHN
# [22] = tested on: NCI-H23
# [23] = tested on: SN12C
# [24] = tested on: HCC 2998
# [25] = tested on: CCRF-CEM
# [26] = tested on: IGROV-1
# [27] = tested on: NCI-H226
# [28] = tested on: SR
# [29] = tested on: SK-MEL-5
# [30] = tested on: Malme-3M
# [31] = tested on: LOX IMVI
# [32] = tested on: TK-10
# [33] = tested on: DMS-114
# [34] = tested on: 786-0
# [35] = tested on: OVCAR-8
# [36] = tested on: UACC-257
# [37] = tested on: A498
# [38] = tested on: HL-60
# [39] = tested on: OVCAR-5
# [40] = tested on: SNB-19
# [41] = tested on: SF-539
# [42] = tested on: EKVX
# [43] = tested on: HCT-116
# [44] = tested on: SK-MEL-2
# [45] = tested on: NCI-H460
# [46] = tested on: NCI-H522
# [47] = tested on: SNB-75
# [48] = tested on: DMS-273
# [49] = tested on: A549
# [50] = tested on: UO-31
# [51] = tested on: K562
# [52] = tested on: SF-295
# [53] = tested on: HOP-92
# [54] = tested on: HCT-15
# [55] = tested on: XF498
# [56] = tested on: M14
# [57] = tested on: SK-MEL-28
# [58] = tested on: SK-OV-3
smiles,measurement,setting,value
C/C(=N\NS(=O)(=O)c1ccc([N+](=O)[O-])cc1)c1ccc[n+]([O-])n1,GI50,[1],1.34 µM (inactive)
same,GI50,[2],2.23 µM (inactive)
same,GI50,[3],2.16 µM (inactive)
same,GI50,[4],1.35 µM (inactive)
same,GI50,[5],2.11 µM (inactive)
same,GI50,[6],2.92 µM (inactive)
same,GI50,[7],2.21 µM (inactive)
same,GI50,[8],2.39 µM (inactive)
same,GI50,[9],1.21 µM (inactive)
same,GI50,[10],2.29 µM (inactive)
same,GI50,[11],4.48 µM (inactive)
same,GI50,[12],2.33 µM (inactive)
same,GI50,[13],2.32 µM (inactive)
same,GI50,[14],2.04 µM (inactive)
same,GI50,[15],11.6 µM (inactive)
same,GI50,[16],2.58 µM (inactive)
same,GI50,[17],4.48 µM (inactive)
same,GI50,[18],2.09 µM (inactive)
same,GI50,[19],1.86 µM (inactive)
same,GI50,[20],2.67 µM (inactive)
same,GI50,[21],2.44 µM (inactive)
same,GI50,[22],1.7 µM (inactive)
same,GI50,[23],2.97 µM (inactive)
same,GI50,[24],9.46 µM (inactive)
same,GI50,[25],3.05 µM (inactive)
same,GI50,[26],3.79 µM (inactive)
same,GI50,[27],1.77 µM (inactive)
same,GI50,[28],3.92 µM (inactive)
same,GI50,[29],2.35 µM (inactive)
same,GI50,[30],3.09 µM (inactive)
same,GI50,[31],0.912 µM (active)
same,GI50,[32],11.6 µM (inactive)
same,GI50,[33],1.77 µM (inactive)
same,GI50,[34],2.36 µM (inactive)
same,GI50,[35],1.76 µM (inactive)
same,GI50,[36],3.8 µM (inactive)
same,GI50,[37],1.98 µM (inactive)
same,GI50,[38],1.81 µM (inactive)
same,GI50,[39],2.63 µM (inactive)
same,GI50,[40],3.24 µM (inactive)
same,GI50,[41],2.08 µM (inactive)
same,GI50,[42],6.9 µM (inactive)
same,GI50,[43],1.72 µM (inactive)
same,GI50,[44],1.92 µM (inactive)
same,GI50,[45],0.776 µM (active)
same,GI50,[46],1.95 µM (inactive)
same,GI50,[47],1.95 µM (inactive)
same,GI50,[48],0.764 µM (active)
same,GI50,[49],2.19 µM (inactive)
same,GI50,[50],2.64 µM (inactive)
same,GI50,[51],3.33 µM (inactive)
same,GI50,[52],1.9 µM (inactive)
same,GI50,[53],2.94 µM (inactive)
same,GI50,[54],5.16 µM
same,GI50,[55],2.64 µM (inactive)
same,GI50,[56],1.8 µM (inactive)
same,GI50,[57],3.21 µM (inactive)
same,GI50,[58],2.64 µM (inactive)
CC1OC(CC(=O)O)Cc2c(O)c3c(c(O)c21)C(=O)C=C(C1=CC(=O)c2c(O)c4c(c(O)c2C1=O)CC(CC(=O)O)OC4C)C3=O (stereo unspecified),GI50,[1],6.14 µM (inactive)
same,GI50,[2],27 µM (inactive)
same,GI50,[3],12.4 µM (inactive)
same,GI50,[4],17.3 µM (inactive)
same,GI50,[5],18.5 µM (inactive)
same,GI50,[6],2.69 µM (inactive)
same,GI50,[7],8.81 µM (inactive)
same,GI50,[8],39.1 µM (inactive)
same,GI50,[9],12.8 µM (inactive)
same,GI50,[10],7.4 µM (inactive)
same,GI50,[11],25.8 µM (inactive)
same,GI50,[12],32 µM (inactive)
same,GI50,[13],29.1 µM (inactive)
same,GI50,[14],20.1 µM (inactive)
same,GI50,[15],22 µM (inactive)
same,GI50,[16],12.7 µM (inactive)
same,GI50,[17],22.2 µM (inactive)
same,GI50,[18],> 100 µM (inactive)
same,GI50,[19],26.1 µM (inactive)
same,GI50,[20],5.28 µM (inactive)
same,GI50,[21],26.1 µM (inactive)
same,GI50,[22],17.6 µM (inactive)
same,GI50,[23],16.6 µM (inactive)
same,GI50,[24],46.3 µM (inactive)
same,GI50,[25],2.75 µM (inactive)
same,GI50,[26],30.7 µM (inactive)
same,GI50,[27],50.8 µM (inactive)
same,GI50,[28],3.69 µM (inactive)
same,GI50,[29],16.4 µM (inactive)
same,GI50,[30],14.5 µM (inactive)
same,GI50,[31],16.5 µM (inactive)
same,GI50,[32],57.9 µM (inactive)
same,GI50,[33],15 µM (inactive)
same,GI50,[34],21.4 µM (inactive)
same,GI50,[35],23.4 µM (inactive)
same,GI50,[36],13.4 µM (inactive)
same,GI50,[37],18.9 µM (inactive)
same,GI50,[38],3.03 µM (inactive)
same,GI50,[39],43.8 µM (inactive)
same,GI50,[40],> 100 µM (inactive)
same,GI50,[41],19.1 µM (inactive)
same,GI50,[42],13.5 µM (inactive)
same,GI50,[43],10.9 µM (inactive)
same,GI50,[44],21.2 µM (inactive)
same,GI50,[45],60.8 µM (inactive)
same,GI50,[46],6.25 µM (inactive)
same,GI50,[47],59.6 µM (inactive)
same,GI50,[48],20.4 µM (inactive)
same,GI50,[49],45.1 µM (inactive)
same,GI50,[50],47.2 µM (inactive)
same,GI50,[51],9.4 µM (inactive)
same,GI50,[52],88.7 µM (inactive)
same,GI50,[53],24.3 µM (inactive)
same,GI50,[54],11.6 µM
same,GI50,[55],17.5 µM (inactive)
same,GI50,[56],15 µM (inactive)
same,GI50,[57],14.7 µM (inactive)
same,GI50,[58],> 100 µM (inactive)
